Data as given in patent US11028095B2, “Spiro-lactam and bis-spiro-lactam NMDA receptor modulators and uses thereof” (Aptinyx Inc., priority 2016, dated 2021).
Like-named read-outs stand apart in the source and are kept apart here.

What was measured:
[1] = target: T1, NMDAR2B expressing HEK cell membranes (Homo sapiens, UniProt Q05586+Q13224); assay: NMDAR agonist assay, [3H]MK-801 binding, NMDAR2B; type: biochemical; details: for EC50: [3H]MK-801 binding; for Emax: relative to 1 mM glycine
T1 construct: expressed in transfected cells; host or cells: HEK cells (membrane extract)
T1 sequence (Q13224 27-1484, other chains not shown): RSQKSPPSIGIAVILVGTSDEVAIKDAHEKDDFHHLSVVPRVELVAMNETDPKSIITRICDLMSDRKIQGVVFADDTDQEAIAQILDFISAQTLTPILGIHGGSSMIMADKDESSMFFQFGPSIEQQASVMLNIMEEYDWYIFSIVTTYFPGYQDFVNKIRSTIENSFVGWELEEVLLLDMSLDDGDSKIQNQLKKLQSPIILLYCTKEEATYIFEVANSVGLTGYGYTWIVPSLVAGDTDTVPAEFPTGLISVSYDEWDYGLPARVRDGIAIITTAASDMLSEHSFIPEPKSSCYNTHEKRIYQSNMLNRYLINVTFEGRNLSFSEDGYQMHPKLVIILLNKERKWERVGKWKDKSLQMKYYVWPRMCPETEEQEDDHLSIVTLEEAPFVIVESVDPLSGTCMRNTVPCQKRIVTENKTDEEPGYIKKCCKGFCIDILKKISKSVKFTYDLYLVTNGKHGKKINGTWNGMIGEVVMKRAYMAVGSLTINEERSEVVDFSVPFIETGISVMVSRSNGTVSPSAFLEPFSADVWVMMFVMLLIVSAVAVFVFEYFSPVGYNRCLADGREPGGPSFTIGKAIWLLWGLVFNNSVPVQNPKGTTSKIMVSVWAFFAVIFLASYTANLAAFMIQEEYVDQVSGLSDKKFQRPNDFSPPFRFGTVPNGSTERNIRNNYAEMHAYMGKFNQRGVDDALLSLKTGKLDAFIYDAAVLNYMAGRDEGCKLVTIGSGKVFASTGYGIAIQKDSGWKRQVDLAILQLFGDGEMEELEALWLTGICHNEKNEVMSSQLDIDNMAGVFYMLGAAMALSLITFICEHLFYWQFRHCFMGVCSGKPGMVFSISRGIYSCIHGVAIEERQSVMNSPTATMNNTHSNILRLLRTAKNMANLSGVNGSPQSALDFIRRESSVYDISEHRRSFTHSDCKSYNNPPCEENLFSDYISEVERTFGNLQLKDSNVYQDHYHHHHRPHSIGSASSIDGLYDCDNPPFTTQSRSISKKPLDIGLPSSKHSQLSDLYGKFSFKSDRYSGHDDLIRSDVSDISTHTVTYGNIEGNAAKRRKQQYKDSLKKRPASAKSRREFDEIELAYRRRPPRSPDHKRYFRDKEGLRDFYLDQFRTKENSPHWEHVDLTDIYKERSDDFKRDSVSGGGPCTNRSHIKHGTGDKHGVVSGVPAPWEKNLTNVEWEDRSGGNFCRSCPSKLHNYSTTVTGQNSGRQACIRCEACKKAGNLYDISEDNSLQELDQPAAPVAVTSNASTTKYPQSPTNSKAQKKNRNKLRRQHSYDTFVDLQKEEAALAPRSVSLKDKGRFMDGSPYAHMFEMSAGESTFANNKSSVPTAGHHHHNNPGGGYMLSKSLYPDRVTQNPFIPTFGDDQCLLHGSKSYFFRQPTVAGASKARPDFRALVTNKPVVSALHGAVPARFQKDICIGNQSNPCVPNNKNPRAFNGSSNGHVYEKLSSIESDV
Procedure: (§1) (nonequilibrium conditions).
(§2) The baseline value was determined from the best fit curve of the DPM values modeled using the GraphPad program and the log(agonist) vs. response(three parameters) algorithm was then subtracted from all points in the dataset.

[2] = target: T2, NMDAR2A expressing HEK cell membranes (Homo sapiens, UniProt Q05586+Q12879); assay: NMDAR agonist assay, [3H]MK-801 binding, NMDAR2A; type: biochemical; details: for Emax: relative to 1 mM glycine; for EC50: [3H]MK-801 binding
T2 construct: expressed in transfected cells; host or cells: HEK cells (membrane extract)
T2 sequence (Q12879 23-1464, other chains not shown): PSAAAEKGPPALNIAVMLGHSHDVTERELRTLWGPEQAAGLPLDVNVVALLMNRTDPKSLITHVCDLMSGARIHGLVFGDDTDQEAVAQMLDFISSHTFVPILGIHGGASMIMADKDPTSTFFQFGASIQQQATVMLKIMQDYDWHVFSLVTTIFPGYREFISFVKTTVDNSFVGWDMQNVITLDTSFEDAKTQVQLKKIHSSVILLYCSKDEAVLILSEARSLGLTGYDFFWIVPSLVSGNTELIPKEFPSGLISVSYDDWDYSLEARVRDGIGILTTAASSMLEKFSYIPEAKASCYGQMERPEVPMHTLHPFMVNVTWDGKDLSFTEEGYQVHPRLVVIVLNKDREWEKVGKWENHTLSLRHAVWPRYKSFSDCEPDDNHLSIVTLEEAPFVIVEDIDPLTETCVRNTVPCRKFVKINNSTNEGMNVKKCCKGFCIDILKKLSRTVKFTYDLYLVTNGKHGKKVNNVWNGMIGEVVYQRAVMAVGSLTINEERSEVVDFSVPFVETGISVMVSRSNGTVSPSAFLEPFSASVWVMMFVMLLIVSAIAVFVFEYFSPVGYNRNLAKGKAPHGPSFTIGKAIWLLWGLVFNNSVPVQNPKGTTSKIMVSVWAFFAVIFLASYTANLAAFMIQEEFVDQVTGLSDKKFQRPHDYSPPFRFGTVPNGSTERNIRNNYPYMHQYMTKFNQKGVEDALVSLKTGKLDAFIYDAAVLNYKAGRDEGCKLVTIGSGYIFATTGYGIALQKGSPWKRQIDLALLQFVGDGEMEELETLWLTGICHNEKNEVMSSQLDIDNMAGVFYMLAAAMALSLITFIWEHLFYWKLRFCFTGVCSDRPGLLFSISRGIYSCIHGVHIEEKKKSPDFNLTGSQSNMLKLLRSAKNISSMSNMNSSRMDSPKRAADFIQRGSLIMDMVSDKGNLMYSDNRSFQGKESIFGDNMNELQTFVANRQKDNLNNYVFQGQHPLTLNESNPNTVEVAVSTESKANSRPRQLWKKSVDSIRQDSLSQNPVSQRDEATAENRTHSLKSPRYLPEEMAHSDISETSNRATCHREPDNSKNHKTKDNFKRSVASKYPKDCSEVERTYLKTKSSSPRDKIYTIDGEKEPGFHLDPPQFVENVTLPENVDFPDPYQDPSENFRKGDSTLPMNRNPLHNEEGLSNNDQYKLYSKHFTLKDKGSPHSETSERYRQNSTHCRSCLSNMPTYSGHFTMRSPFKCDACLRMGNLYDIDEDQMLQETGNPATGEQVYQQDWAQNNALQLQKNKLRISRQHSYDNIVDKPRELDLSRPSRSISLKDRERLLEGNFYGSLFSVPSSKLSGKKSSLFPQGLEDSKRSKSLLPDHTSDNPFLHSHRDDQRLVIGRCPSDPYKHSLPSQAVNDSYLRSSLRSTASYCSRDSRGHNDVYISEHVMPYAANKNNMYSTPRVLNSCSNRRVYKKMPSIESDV
Procedure: as §1, §2

[3] = 50 μM glutamate, read-out: NMDAR2B log EC50 (converted)
[4] = 50 μM glutamate, read-out: NMDAR2B: % maximal [3H]MK-801 binding relative to 1 mM glycine
[5] = 50 μM glutamate, read-out: NMDAR2A: % maximal [3H]MK-801 binding relative to 1 mM glycine
[6] = 50 μM glutamate, read-out: NMDAR2A: log EC50 (converted)
[7] = NMDAR2B: log EC50, 50 μM glutamate
[8] = read-out: NMDAR2B: % maximal [3H]MK-801 binding relative to 1 mM glycine, 50 μM glutamate
[9] = NMDAR2A: log EC50, 50 μM glutamate
[10] = read-out: NMDAR2A: % maximal [3H]MK-801 binding relative to 1 mM glycine, 50 μM glutamate

Row | SMILES | EC50 [1, 3] | Emax [1, 4] | Emax [2, 5] | EC50 [2, 6] | EC50 [1, 7] | Emax [1, 8] | EC50 [2, 9] | Emax [2, 10]
1 | C[C@@H](O)[C@H](NC(=O)C1CCC2(CNC2=O)N1C)C(N)=O (single isomer, unassigned) [BC] | < 1 nM | > 100% | < 100% |  |  |  |  | 
2 | CNC(=O)[C@@H](NCC1CCC2(CN(OCc3ccccc3)C2=O)N1C(=O)OC(C)(C)C)[C@@H](C)O (single isomer, unassigned) [BM] | > 100 nM | 0% | 0% | > 100 nM |  |  |  | 
3 | COc1ccc(CN2CC3(CC(N[C@H](C(=O)O)[C@@H](C)O)CN3C(=O)OC(C)(C)C)C2=O)cc1 (single isomer, unassigned) [CE, (5-(tert-butoxycarbonyl)-2-(4-methoxybenzyl)-1-oxo-2,5-diazaspiro[3.4]octan-7-yl)-L-threonine] | < 1 nM | > 100% | 0% | > 100 nM |  |  |  | 
4 | CC(O)C(NCC1CCC2(CNC2=O)N1)C(N)=O (single isomer, unassigned) [CM] | < 1 nM | < 100% | < 100% | < 1 nM |  |  |  | 
5 | CNC(=O)C(NCC1CCC2(CN(OCc3ccccc3)C2=O)N1)C(C)O (single isomer, unassigned) [CO] | < 1 nM | < 100% | < 100% | < 1 nM |  |  |  | 
6 | CNC(=O)C(C(C)O)N(C)CC1CCC2(CN(OCc3ccccc3)C2=O)N1 (single isomer, unassigned) [CW] | < 1 nM | < 100% | < 100% | < 1 nM |  |  |  | 
7 | NC(=O)C1CCC2(CN(OCc3ccccc3)C2=O)N1 (single isomer, unassigned) [CY, 2-(benzyloxy)-1-oxo-2,5-diazaspiro[3.4]octane-6-carboxamide] | < 1 nM | < 100% | < 100% | < 1 nM |  |  |  | 
8 | NC(=O)C1CCC2(CNC2=O)N1 (single isomer, unassigned) [DA, 1-oxo-2,5-diazaspiro[3.4]octane-6-carboxamide] | < 1 nM | < 100% | < 100% | < 1 nM |  |  |  | 
9 | CC(C)CN1C(C(N)=O)CCC12CNC2=O (single isomer, unassigned) [DC, 5-isobutyl-1-oxo-2,5-diazaspiro[3.4]octane-6-carboxamide] | < 1 nM | > 100% | < 100% | < 1 nM |  |  |  | 
10 | NC(=O)C1CCC2(CNC2=O)N1Cc1ccccc1 (single isomer, unassigned) [DE, 5-benzyl-1-oxo-2,5-diazaspiro[3.4]octane-6-carboxamide] | < 1 nM | < 100% | < 100% | < 1 nM |  |  |  | 
11 | NC(=O)C1CCC2(CNC2=O)N1Cc1ccc(F)cc1 (single isomer, unassigned) [DG, 5-(4-fluorobenzyl)-1-oxo-2,5-diazaspiro[3.4]octane-6-carboxamide] |  | < 100% | < 100% | < 1 nM |  |  |  | 
12 | O=C1NCC12CCC1(CNC1=O)N2Cc1ccc(F)cc1 (single isomer, unassigned) [DI, 5-(4-fluorobenzyl)-2,5,8-triazadispiro[3.1.36.24]undecane-1,7-dione] | < 1 nM | < 100% | < 100% |  |  |  |  | 
13 | CN1C2(CCC13CNC3=O)CNC2=O (stereo not shown) [AB-3, 5-methyl-2,5,8-triazadispiro[3.1.36.24]undecane-1,7-dione] |  |  |  |  | > 100 nM | 0% | > 100 nM | 0%
14 | CC(C)CN1C2(CCC13CNC3=O)CNC2=O (stereo not shown) [AE, 5-isobutyl-2,5,8-triazadispiro[3.1.36.24]undecane-1,7-dione] |  |  |  |  | > 100 nM | 0% | > 100 nM | 0%
15 | CC(C)C(=O)N1C[C@@H](C(N)=O)C[C@]12CNC2=O [AT, (4R,7S)-5-isobutyryl-1-oxo-2,5-diazaspiro[3.4]octane-7-carboxamide] | > 100 nM | 0% | < 100% |  |  |  |  | 
16 | C[C@@H](O)[C@H](NCC1CCC2(CNC2=O)N1C(=O)OC(C)(C)C)C(N)=O (stereo partly shown) [BL] | < 1 nM |  |  |  |  |  |  | 
17 | COc1ccc(CN2CC3(CC(N[C@H](C(N)=O)[C@@H](C)O)CN3)C2=O)cc1 (stereo partly shown) [CD] |  |  |  | < 1 nM |  |  |  | 
